Measured values published in US6541193B2, “Screening the activity of drugs for central nervous system (CNS)” (Council of Scientific & Industrial Research, priority 2001, dated 2003).

Tested on: Sh^5eag^1 mutant flies
Test: Recovery time from diethyl ether anesthesia in flies fed drug in food
Format: in vivo, Drosophila melanogaster
Conditions: Sh^5eag^1 males
Procedure: Standard Drosophila manipulation methods were followed. Cultures were grown on a medium containing maize powder, sugar, yeast and Nipagin. Flies were maintained and further manipulated at room temperature. Experimental conditions were kept identical. The double mutant Sh^5eag^1 was generated using standard methods of Drosophila genetics.
Equal number of Sh^5eag^1 males, varying in age between 6-9 days, were treated in 25×100 mm glass vials with either normal food (NF) or food containing 1 mg/ml of phenobarbital sodium (PS; NF+PS) for 5 days. Twenty males were treated in each vial. Flies were first anesthesized with ether and healthy looking individuals shifted to 10 empty vials in such a way that each vial received two flies, one from each treatment. Before shifting, flies from one of the two treatments were marked on their wings for the purpose of identification. Flies were allowed to recover fully. After an hour, each fly pair was subjected to the following test one by one. The two flies, inside a vial with 800 mg of cotton plug, were simultaneously anesthetized by pouring 0.2 ml of diethyl ether on to the plug. After about 1.5 min, during which the vial was gently shaken continuously so that the flies remained at the bottom throughout, the two individuals were immediately shifted to two fresh empty vials. Time at this point was considered 0 min. […]

CCC1(c2ccccc2)C(=O)NC(=O)NC1=O [PS, phenobarbital sodium]
effect on recovery from ether anesthesia (1 mg/ml in food for 5 days, vs normal food): delays recovery from ether anesthesia | recovery time (time to first stand up on legs after etherisation) (food containing 1 mg/ml for 5 days, diethyl ether anesthesia, NF control 2.4±0.44 min, p<0.02): 7.2 ± 1.78 min
